Test results taken from article PMC10916402, “Meropenem-ANT3310, a unique β-lactam-β-lactamase inhibitor combination with expanded antibacterial spectrum against Gram-negative pathogens including carbapenem-resistant Acinetobacter baumannii” (Antimicrobial Agents and Chemotherapy, 2024).
pIC50: −log10 of the molar value. Converted amounts (≈) assume the structure as drawn. Where two headings read alike, the source gives them in different places.

Assays:
OXA-51 = OXA-51 (Acinetobacter baumannii, UniProt Q5QT35); experiment: In vitro SBL inhibition assay (nitrocefin hydrolysis), IC50; assay type: biochemical, A. baumannii; settings: 10 min preincubation, 30°C, read-out: Enzyme IC50
Procedure: (§1) Nitrocefin (Sigma-Aldrich, St Louis, MO, USA), a chromogenic cephalosporin antibiotic (λ, 482 nm; εM, 15,000 M^−1.cm^−1), was used as a reporter substrate at 100 µM for KPC-2, OXA-23, and OXA-48, at 200 µM for OXA-24 and OXA-51, and at 50 µM for OXA-58. Enzymes were preincubated in the presence of varying concentrations of each compound (0.006 to 3000 nM, diluted twofold in dimethyl sulfoxide (DMSO) for KPC-2, OXA-23, and OXA-48 assays and 0.51 to 10,000 nM diluted threefold in DMSO for OXA-24, OXA-51, and OXA-58) for 10 min at 30°C. Nitrocefin was then added and its hydrolysis by the uninhibited enzyme fraction was followed at an absorbance wavelength of 482 nm for 10 min at 30°C using Envision UV fluorescence plate reader (Perkin Elmer, Waltham, MA, USA). Hydrolysis rate data were used to determine inhibitory activities, expressed in IC50 values [corresponding to the compound concentration (µM) required to inhibit 50% of enzymatic reaction].

OXA-58 = OXA-58 (Acinetobacter baumannii, UniProt Q2TR58); experiment: as above; assay type: biochemical, A. baumannii
Procedure: as §1

OXA-48 = OXA-48 (Klebsiella pneumoniae, UniProt Q6XEC0); experiment: as above; assay type: biochemical; settings: 10 min preincubation, 30°C, read-out: Enzyme IC50
Procedure: as §1

OXA-23 = OXA-23 (Acinetobacter baumannii, UniProt Q9L4P2); experiment: as above; assay type: biochemical; settings: 10 min preincubation, 30°C, read-out: Enzyme IC50
Procedure: as §1

OXA-24/40 = OXA-24/40 (Acinetobacter baumannii, UniProt Q8RLA6); experiment: as above; assay type: biochemical; settings: 10 min preincubation, 30°C, read-out: Enzyme IC50
Procedure: as §1

KPC-2 = KPC-2 (Klebsiella pneumoniae, UniProt Q9F663); experiment: as above; assay type: biochemical
Procedure: as §1

[1] = system: A. baumannii clinical isolates; experiment: Broth microdilution MIC, A. baumannii clinical isolates; assay type: cell-based, Acinetobacter baumannii; settings: for MIC50: read-out: MIC50
Summary of the method: (§2)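 Broth microdilution per CLSI and EUCAST in cation-adjusted Mueller Hinton broth, iron-depleted for cefiderocol; ANT3310 panels prepared fresh on test day. Isolates collected 2018–2019, identity confirmed by MALDI-TOF. MIC taken as first well without visible growth, interpreted with 2023 CLSI and EUCAST breakpoints.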

[2] = system: OXA- or KPC-Enterobacterales clinical isolates; experiment: Broth microdilution MIC, OXA- or KPC-positive Enterobacterales; assay type: cell-based
Procedure: (§3) All isolates were randomly selected from the frozen culture collection of IHMA collected in 2018 and 2019. Matrix-assisted laser desorption ionization-time of flight mass spectrometry was used to confirm the identity of the organisms tested (Bruker Daltonics, Bremen, Germany).
(§4) MICs for all antimicrobial agents were determined at IHMA by broth microdilution in accordance with both CLSI ([17]) and EUCAST ([18]) guidelines. Microtiter panels were prepared by IHMA and stored at −70°C in cation-adjusted Mueller Hinton broth (CAMHB) (Becton Dickinson). Iron-depleted CAMHB was used to test cefiderocol. Panels containing ANT3310 were prepared fresh on the day of testing. […] MIC values corresponded to the first well with no visible growth. Quality control testing was performed on each day of testing with E. coli ATCC 25922, P. aeruginosa ATCC 27853, K. pneumoniae ATCC 700603 and BAA 1705, and A. baumannii NCTC 13304. MICs were interpreted using 2023 CLSI ([17]) and EUCAST ([18]) BPs.

[3] = system: P. aeruginosa clinical isolates; experiment: Broth microdilution MIC, P. aeruginosa clinical isolates; assay type: cell-based, Pseudomonas aeruginosa; settings: ANT3310 alone, P. aeruginosa N 502
Procedure: as §3, §4

[4] = system: Enterobacterales, P. aeruginosa and A. baumannii clinical isolates; experiment: Intrinsic antibacterial activity of ANT3310 alone, all 1,207 isolates; assay type: cell-based
Procedure: as §3, §4

[5] = system: A. baumannii ACC00445 (OXA-23); experiment: MIC against the isolate used in the infection models; assay type: cell-based; settings: Acinetobacter baumannii
Procedure: as §4

[6] = system: carbapenem-resistant Acinetobacter baumannii (CRAB) clinical isolates; experiment: Broth microdilution MIC, CRAB isolates; assay type: cell-based; settings: 2018 Global collection, CRAB (MEM MICs >4 µg/mL), N 363
Summary of the method: as §2

[7] = system: KPC-producing Enterobacterales (KPC-CRE); experiment: organism not typed; assay type: cell-based
Summary of the method: as §2

[8] = system: OXA-producing Enterobacterales (OXA-CRE); experiment: organism not typed; assay type: cell-based
Summary of the method: as §2

[9] = ANT3310 alone, A. baumannii N 405
[10] = ANT3310 alone, OXA- or KPC-Enterobacterales N 300
[11] = 2018 Global collection, All A. baumannii, N 500

Chain of OXA-23 (Q9L4P2 18-273): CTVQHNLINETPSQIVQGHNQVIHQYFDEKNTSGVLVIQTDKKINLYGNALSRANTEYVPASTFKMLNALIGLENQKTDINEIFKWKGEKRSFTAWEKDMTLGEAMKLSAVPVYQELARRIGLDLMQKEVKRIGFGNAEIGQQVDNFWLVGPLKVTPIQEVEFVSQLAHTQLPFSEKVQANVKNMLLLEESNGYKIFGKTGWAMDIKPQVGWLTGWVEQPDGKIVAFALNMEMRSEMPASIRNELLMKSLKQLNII
Chain of OXA-24/40 (Q8RLA6 22-275): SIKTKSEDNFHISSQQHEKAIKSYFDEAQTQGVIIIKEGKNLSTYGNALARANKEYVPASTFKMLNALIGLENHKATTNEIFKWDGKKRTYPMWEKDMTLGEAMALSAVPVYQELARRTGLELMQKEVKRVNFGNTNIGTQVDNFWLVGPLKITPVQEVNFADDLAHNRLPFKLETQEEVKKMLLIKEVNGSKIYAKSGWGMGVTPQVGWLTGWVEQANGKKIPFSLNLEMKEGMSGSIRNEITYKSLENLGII
Chain of KPC-2 (Q9F663 25-293 limits assumed): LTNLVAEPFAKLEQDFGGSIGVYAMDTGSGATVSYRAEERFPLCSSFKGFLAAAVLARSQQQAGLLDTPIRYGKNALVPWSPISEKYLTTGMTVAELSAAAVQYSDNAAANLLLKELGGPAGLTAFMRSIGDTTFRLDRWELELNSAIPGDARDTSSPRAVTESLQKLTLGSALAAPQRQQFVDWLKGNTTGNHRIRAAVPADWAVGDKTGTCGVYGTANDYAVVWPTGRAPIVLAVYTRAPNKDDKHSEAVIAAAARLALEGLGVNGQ
Chain of OXA-51 (Q5QT35 entry or part of it): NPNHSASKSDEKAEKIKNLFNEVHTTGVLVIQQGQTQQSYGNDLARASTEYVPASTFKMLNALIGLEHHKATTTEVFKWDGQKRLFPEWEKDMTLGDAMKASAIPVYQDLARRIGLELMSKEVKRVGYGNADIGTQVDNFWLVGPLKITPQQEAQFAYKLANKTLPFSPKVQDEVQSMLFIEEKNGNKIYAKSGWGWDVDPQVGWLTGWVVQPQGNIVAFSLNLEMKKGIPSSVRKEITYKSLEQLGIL
Chain of OXA-48 (Q6XEC0 23-265, looked up, species assumed): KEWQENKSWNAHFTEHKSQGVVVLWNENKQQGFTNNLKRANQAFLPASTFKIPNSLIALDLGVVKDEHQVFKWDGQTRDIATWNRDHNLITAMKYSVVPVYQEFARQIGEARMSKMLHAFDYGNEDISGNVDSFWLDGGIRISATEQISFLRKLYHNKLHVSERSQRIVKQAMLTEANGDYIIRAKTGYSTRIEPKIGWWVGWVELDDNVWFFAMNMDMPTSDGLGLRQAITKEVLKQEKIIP
Chain of OXA-58 (Q2TR58 19-280): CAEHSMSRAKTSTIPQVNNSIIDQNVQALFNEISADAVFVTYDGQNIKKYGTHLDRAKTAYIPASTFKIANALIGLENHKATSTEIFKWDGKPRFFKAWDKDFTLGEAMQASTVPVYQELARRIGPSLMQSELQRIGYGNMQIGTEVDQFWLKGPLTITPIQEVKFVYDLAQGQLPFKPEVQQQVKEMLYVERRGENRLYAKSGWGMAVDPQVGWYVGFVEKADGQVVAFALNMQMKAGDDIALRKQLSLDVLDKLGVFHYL

`O=C1N2C[C@@H](CC[C@H]2F)N1OS(=O)(=O)O` [ANT3310] gave a pIC50 (OXA-51) of 6.27, a pIC50 (OXA-58) of 8.10 and a pIC50 (OXA-48) of 6.75. For the same compound, the pIC50 (OXA-23) was 7.49, the pIC50 (OXA-24/40) was 6.22 and the pIC50 (KPC-2) was 7.71. For the same compound, the MIC90 [1, 9] was greater than 64 µg/mL, the “Number of isolates inhibited at MIC of 4 µg/mL” value [1, 9] was 1 and the “Number of isolates inhibited at MIC of 8 µg/mL” value [1, 9] was 4. For the same compound, the “Number of isolates inhibited at MIC of 16 µg/mL” value [1, 9] was 1, the “Number of isolates inhibited at MIC of 32 µg/mL” value [1, 9] was 11 and the “Number of isolates inhibited at MIC of 64 µg/mL” value [1, 9] was 38. For the same compound, the “Number of isolates inhibited at MIC of >64 µg/mL” value [1, 9] was 350, the MIC50 ([1]; Acinetobacter baumannii, ANT3310 alone, A. baumannii N 405) was 64 µg/mL (≈ 266 µM) and the MIC90 ([1]; Acinetobacter baumannii, ANT3310 alone, A. baumannii N 405, read-out: MIC90) was greater than 64 µg/mL. For the same compound, the MIC50 [2] was greater than 64 µg/mL, the MIC90 [2] was greater than 64 µg/mL and the MIC50 [2, 10] was greater than 64 µg/mL. The MIC90 [2, 10] was greater than 64 µg/mL, the “Number of isolates inhibited at MIC of 8 µg/mL” value [2, 10] was 1 and the “Number of isolates inhibited at MIC of 32 µg/mL” value [2, 10] was 8. For the same compound, the “Number of isolates inhibited at MIC of 64 µg/mL” value [2, 10] was 234, the “Number of isolates inhibited at MIC of >64 µg/mL” value [2, 10] was 57 and the MIC50 [3] was greater than 64 µg/mL. The MIC90 [3] was greater than 64 µg/mL, the “Number of isolates inhibited at MIC of 16 µg/mL” value [3] was 2 and the “Number of isolates inhibited at MIC of 32 µg/mL” value [3] was 9. The “Number of isolates inhibited at MIC of 64 µg/mL” value [3] was 15, the “Number of isolates inhibited at MIC of >64 µg/mL” value [3] was 476 and the MIC50 ([3]; Pseudomonas aeruginosa, read-out: MIC50) was greater than 64 µg/mL. For the same compound, the MIC90 ([3]; Pseudomonas aeruginosa, read-out: MIC90) was greater than 64 µg/mL, the Intrinsic antibacterial activity ([4]; ANT3310 alone, 1,207 isolates) was “No clinically significant antibacterial activity” and the “Number of isolates with ANT3310 MICs ≤8 µg/mL” value ([4]; of the 1,207 isolates tested, ANT3310 alone) was 6.
For `CN(C)c1cc(NC(=O)CNC(C)(C)C)c(O)c2c1C[C@H]1C[C@H]3[C@H](N(C)C)C(O)=C(C(N)=O)C(=O)[C@@]3(O)C(O)=C1C2=O` [Tigecycline, tigecycline], the MIC [5] was 2 µg/mL (≈ 3.41 µM), the “Number of isolates inhibited at MIC of 0.5 µg/mL” value [6] was 7 and the “Number of isolates inhibited at MIC of 1 µg/mL” value [6] was 48. The “Number of isolates inhibited at MIC of 2 µg/mL” value [6] was 146, the “Number of isolates inhibited at MIC of 4 µg/mL” value [6] was 131 and the “Number of isolates inhibited at MIC of 8 µg/mL” value [6] was 28. For the same compound, the “Number of isolates inhibited at MIC of 16 µg/mL” value [6] was 3, the MIC50 ([6]; Acinetobacter baumannii, read-out: MIC50) was 2 µg/mL (≈ 3.41 µM) and the MIC90 ([6]; Acinetobacter baumannii, read-out: MIC90) was 4 µg/mL (≈ 6.83 µM). The “Number of isolates inhibited at MIC of 0.25 µg/mL” value [1, 11] was 40, the “Number of isolates inhibited at MIC of 0.5 µg/mL” value [1, 11] was 41 and the “Number of isolates inhibited at MIC of 1 µg/mL” value [1, 11] was 76. The “Number of isolates inhibited at MIC of 2 µg/mL” value [1, 11] was 162, the “Number of isolates inhibited at MIC of 4 µg/mL” value [1, 11] was 140 and the “Number of isolates inhibited at MIC of 8 µg/mL” value [1, 11] was 31. For the same compound, the “Number of isolates inhibited at MIC of 16 µg/mL” value [1, 11] was 4, the “Number of isolates inhibited at MIC of ≤0.125 µg/mL” value [1, 11] was 6 and the MIC50 ([1]; Acinetobacter baumannii, 2018 Global collection, All A. baumannii, N 500) was 2 µg/mL (≈ 3.41 µM). For the same compound, the MIC90 ([1]; Acinetobacter baumannii, 2018 Global collection, All A. baumannii, N 500, read-out: MIC90) was 4 µg/mL (≈ 6.83 µM), the MIC90 ([1]; Acinetobacter baumannii, A. baumannii, one or both of the 2018/2019 collections, read-out: MIC90) was 4 µg/mL (≈ 6.83 µM) and the MIC50 [7] was 1 µg/mL (≈ 1.71 µM). It also gave an MIC90 [7] of 4 µg/mL (≈ 6.83 µM), an MIC50 [8] of 2 µg/mL (≈ 3.41 µM) and an MIC90 [8] of 4 µg/mL (≈ 6.83 µM).
